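Results reflect a 48-hour exposure of cells in 96-well plates to compound at five concentrations. TGI is the concentration that stops growth completely.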
Key:
Assay in all cases: NCI anticancer screen, dose series, 48 h
786-0 renal = tested on: 786-0 renal
A498 renal = tested on: A498 renal
A549 NSCLC = tested on: A549 NSCLC
ACHN renal = tested on: ACHN renal
CCRF-CEM leukemia = tested on: CCRF-CEM leukemia
COLO 205 colon = tested on: COLO 205 colon
DMS 273 small cell lung = tested on: DMS 273 small cell lung
EKVX NSCLC = tested on: EKVX NSCLC
HCT-116 colon = tested on: HCT-116 colon
HCT-15 colon = tested on: HCT-15 colon
HOP-18 NSCLC = tested on: HOP-18 NSCLC
HOP-92 NSCLC = tested on: HOP-92 NSCLC
HT29 colon = tested on: HT29 colon
IGROV1 ovarian = tested on: IGROV1 ovarian
K-562 leukemia = tested on: K-562 leukemia
KM12 colon = tested on: KM12 colon
KM20L2 colon = tested on: KM20L2 colon
LOX IMVI melanoma = tested on: LOX IMVI melanoma
LXFL 529 NSCLC = tested on: LXFL 529 NSCLC
M14 melanoma = tested on: M14 melanoma
M19-MEL melanoma = tested on: M19-MEL melanoma
MALME-3M melanoma = tested on: MALME-3M melanoma
MOLT-4 leukemia = tested on: MOLT-4 leukemia
NCI-H226 lung = tested on: NCI-H226 lung
NCI-H23 lung = tested on: NCI-H23 lung
NCI-H460 lung = tested on: NCI-H460 lung
NCI-H522 lung = tested on: NCI-H522 lung
OVCAR-3 ovarian = tested on: OVCAR-3 ovarian
OVCAR-4 ovarian = tested on: OVCAR-4 ovarian
OVCAR-5 ovarian = tested on: OVCAR-5 ovarian
OVCAR-8 ovarian = tested on: OVCAR-8 ovarian
RPMI-8226 leukemia = tested on: RPMI-8226 leukemia
RXF-631 renal = tested on: RXF-631 renal
SF-268 CNS = tested on: SF-268 CNS
SF-295 CNS = tested on: SF-295 CNS
SF-539 CNS = tested on: SF-539 CNS
SK-MEL-2 melanoma = tested on: SK-MEL-2 melanoma
SK-MEL-28 melanoma = tested on: SK-MEL-28 melanoma
SK-MEL-5 melanoma = tested on: SK-MEL-5 melanoma
SK-OV-3 ovarian = tested on: SK-OV-3 ovarian
SN12C renal = tested on: SN12C renal
SNB-19 CNS = tested on: SNB-19 CNS
SNB-75 CNS = tested on: SNB-75 CNS
SNB-78 CNS = tested on: SNB-78 CNS
SW-620 colon = tested on: SW-620 colon
TK-10 renal = tested on: TK-10 renal
U251 CNS = tested on: U251 CNS
UACC-257 melanoma = tested on: UACC-257 melanoma
UACC-62 melanoma = tested on: UACC-62 melanoma
UO-31 renal = tested on: UO-31 renal
XF 498 CNS = tested on: XF 498 CNS
DLD-1 colon = tested on: DLD-1 colon
DMS 114 small cell lung = tested on: DMS 114 small cell lung
HCC-2998 colon = tested on: HCC-2998 colon
HL-60(TB) leukemia = tested on: HL-60(TB) leukemia
RXF 393 renal = tested on: RXF 393 renal

Which results are given for `C[Si](C)(C)/C(I)=C/CO`?
TGI (786-0 renal): > 100 µM; TGI (A498 renal): > 100 µM; TGI (A549 NSCLC): 76.3 µM; TGI (ACHN renal): 46.4 µM; TGI (CCRF-CEM leukemia): 48.2 µM; TGI (COLO 205 colon): 31.1 µM; TGI (DMS 273 small cell lung): 48.9 µM; TGI (EKVX NSCLC): 71.7 µM; TGI (HCT-116 colon): 27.5 µM; TGI (HCT-15 colon): 72.1 µM; TGI (HOP-18 NSCLC): 64.1 µM; TGI (HOP-92 NSCLC): 54.5 µM; TGI (HT29 colon): 44.5 µM; TGI (IGROV1 ovarian): > 100 µM; TGI (K-562 leukemia): 41.4 µM; TGI (KM12 colon): 60.8 µM; TGI (KM20L2 colon): 55.9 µM; TGI (LOX IMVI melanoma): 42.1 µM; TGI (LXFL 529 NSCLC): > 100 µM; TGI (M14 melanoma): > 100 µM; TGI (M19-MEL melanoma): 53.1 µM; TGI (MALME-3M melanoma): 74.9 µM; TGI (MOLT-4 leukemia): 35.3 µM; TGI (NCI-H226 lung): 39.3 µM; TGI (NCI-H23 lung): 39.5 µM; TGI (NCI-H460 lung): 46.3 µM; TGI (NCI-H522 lung): 34.5 µM; TGI (OVCAR-3 ovarian): 73.1 µM; TGI (OVCAR-4 ovarian): > 100 µM; TGI (OVCAR-5 ovarian): 69 µM; TGI (OVCAR-8 ovarian): 86.5 µM; TGI (RPMI-8226 leukemia): 40.7 µM; TGI (RXF-631 renal): 83.8 µM; TGI (SF-268 CNS): 94.1 µM; TGI (SF-295 CNS): 58.3 µM; TGI (SF-539 CNS): 39.9 µM; TGI (SK-MEL-2 melanoma): 38.4 µM; TGI (SK-MEL-28 melanoma): 77.5 µM; TGI (SK-MEL-5 melanoma): 34.6 µM; TGI (SK-OV-3 ovarian): > 100 µM; TGI (SN12C renal): 64.7 µM; TGI (SNB-19 CNS): 64.7 µM; TGI (SNB-75 CNS): > 100 µM; TGI (SNB-78 CNS): 95.3 µM; TGI (SW-620 colon): 47.8 µM; TGI (TK-10 renal): 96.9 µM; TGI (U251 CNS): 36.7 µM; TGI (UACC-257 melanoma): 45.2 µM; TGI (UACC-62 melanoma): 52.9 µM; TGI (UO-31 renal): 71.5 µM; TGI (XF 498 CNS): 31.9 µM

How did the TGI (786-0 renal) turn out when `CC(Oc1ccc(OCC2CCCCC2)cc1)C(=O)OCC(=O)c1ccc(-c2ccccc2)cc1` (centres undefined) was run?
The TGI was over 100 µM.

And the TGI (A498 renal)?
Its TGI is over 100 µM.

What about the TGI (A549 NSCLC) of the same molecule?
The TGI was over 100 µM.

What about the TGI (ACHN renal) of the same molecule?
Its TGI is over 100 µM.

And the TGI (CCRF-CEM leukemia)?
Its TGI is over 100 µM.

What about the TGI (DLD-1 colon) of the same molecule?
Its TGI is over 100 µM.

And the TGI (DMS 114 small cell lung)?
Its TGI is over 100 µM.

And the TGI (DMS 273 small cell lung)?
The TGI was over 100 µM.

And the TGI (HCC-2998 colon)?
Its TGI is over 100 µM.

And the TGI (HCT-116 colon)?
Its TGI is over 100 µM.

What about the TGI (HCT-15 colon) of the same molecule?
The TGI was over 100 µM.

What about the TGI (HL-60(TB) leukemia) of the same molecule?
The TGI was over 100 µM.

What about the TGI (HOP-18 NSCLC) of the same molecule?
The TGI was over 100 µM.

What about the TGI (HT29 colon) of the same molecule?
The TGI was over 100 µM.

And the TGI (IGROV1 ovarian)?
The TGI was over 100 µM.

What about the TGI (K-562 leukemia) of the same molecule?
Its TGI is over 100 µM.

And the TGI (KM12 colon)?
The TGI was over 100 µM.

And the TGI (LOX IMVI melanoma)?
Its TGI is over 100 µM.

And the TGI (LXFL 529 NSCLC)?
Its TGI is over 100 µM.

What about the TGI (M14 melanoma) of the same molecule?
Its TGI is over 100 µM.

And the TGI (M19-MEL melanoma)?
The TGI was over 100 µM.

And the TGI (MALME-3M melanoma)?
Its TGI is over 100 µM.

What about the TGI (MOLT-4 leukemia) of the same molecule?
The TGI was over 100 µM.

What about the TGI (NCI-H226 lung) of the same molecule?
Its TGI is over 100 µM.

And the TGI (NCI-H23 lung)?
The TGI was over 100 µM.

And the TGI (NCI-H460 lung)?
Its TGI is over 100 µM.

And the TGI (NCI-H522 lung)?
Its TGI is over 100 µM.

And the TGI (OVCAR-3 ovarian)?
The TGI was over 100 µM.

And the TGI (OVCAR-4 ovarian)?
The TGI was over 100 µM.

What about the TGI (OVCAR-8 ovarian) of the same molecule?
Its TGI is over 100 µM.

And the TGI (RXF 393 renal)?
Its TGI is over 100 µM.

What about the TGI (SF-268 CNS) of the same molecule?
The TGI was over 100 µM.

And the TGI (SF-295 CNS)?
The TGI was over 100 µM.

And the TGI (SF-539 CNS)?
The TGI was over 100 µM.

And the TGI (SK-MEL-2 melanoma)?
Its TGI is over 100 µM.

What about the TGI (SK-MEL-28 melanoma) of the same molecule?
Its TGI is over 100 µM.

And the TGI (SK-MEL-5 melanoma)?
The TGI was over 100 µM.

What about the TGI (SK-OV-3 ovarian) of the same molecule?
The TGI was over 100 µM.

What about the TGI (SN12C renal) of the same molecule?
The TGI was over 100 µM.

And the TGI (SNB-19 CNS)?
The TGI was over 100 µM.

And the TGI (SNB-75 CNS)?
The TGI was over 100 µM.

And the TGI (SNB-78 CNS)?
The TGI was over 100 µM.

And the TGI (TK-10 renal)?
Its TGI is over 100 µM.

And the TGI (U251 CNS)?
The TGI was over 100 µM.

What about the TGI (UACC-257 melanoma) of the same molecule?
Its TGI is over 100 µM.

What about the TGI (UACC-62 melanoma) of the same molecule?
The TGI was over 100 µM.

And the TGI (UO-31 renal)?
Its TGI is over 100 µM.

And the TGI (XF 498 CNS)?
Its TGI is over 100 µM.

Source: PubChem BioAssay (NCI)
